Measured values from ChEMBL document CHEMBL2424542, “3-Carboxy-pyrazolinalanine as a new scaffold for developing potent and selective NMDA receptor antagonists” (Eur J Med Chem, 2013).

Experiments:
Type in all cases: cell membranes, Membrane
[1] = Displacement of [3H]AMPA from AMPA receptor in rat cortical membranes
[2] = Displacement of [3H]KAIN from kainate receptor in rat cortical membranes
Glutamate NMDA receptor = assay: Displacement of [3H]CGP39653 from NMDA receptor in rat cortical membranes

Structure (SMILES)	IC50 [1]	IC50 [2]	Ki (Glutamate NMDA receptor)
N[C@H](C[C@H]1CC(C(=O)O)=NN1Cc1ccccc1)C(=O)O (racemic)	> 100 µM	> 100 µM	1.4 µM
N[C@H](C[C@H]1CC(C(=O)O)=NN1c1ccccc1)C(=O)O (racemic)	> 100 µM	> 100 µM	0.026 µM
N[C@H](C[C@@H]1CC(C(=O)O)=NN1c1ccccc1)C(=O)O (racemic)	> 100 µM	> 100 µM	0.2 µM
N[C@H](C[C@@H]1CC(C(=O)O)=NN1Cc1ccccc1)C(=O)O (racemic)	> 100 µM	> 100 µM	9.9 µM
N[C@H](C[C@@H]1CC(C(=O)O)=NN1)C(=O)O (racemic)	> 100 µM	> 100 µM	1.7 µM
N[C@H](C[C@@H]1CC(C(=O)O)=NO1)C(=O)O (racemic)	> 100 µM	> 100 µM	–
N[C@H](C[C@H]1CC(C(=O)O)=NO1)C(=O)O (racemic)	> 100 µM	> 100 µM	–
N[C@H](C[C@H]1CC(C(=O)O)=NN1)C(=O)O (racemic)	> 100 µM	> 100 µM	0.17 µM
